Test results as given in BindingDB's records for doi:10.1016/S0960-894X(01)80190-6 (n/a, 1994).

Target: Lanosterol 14-alpha demethylase (Candida albicans) (UniProt P10613)
Assay: In vitro inhibition of Lanosterol 14-alpha demethylase (Candida albicans CY1005)

Lanosterol 14-alpha demethylase (Candida albicans), sequence (P10613 whole entry, looked up): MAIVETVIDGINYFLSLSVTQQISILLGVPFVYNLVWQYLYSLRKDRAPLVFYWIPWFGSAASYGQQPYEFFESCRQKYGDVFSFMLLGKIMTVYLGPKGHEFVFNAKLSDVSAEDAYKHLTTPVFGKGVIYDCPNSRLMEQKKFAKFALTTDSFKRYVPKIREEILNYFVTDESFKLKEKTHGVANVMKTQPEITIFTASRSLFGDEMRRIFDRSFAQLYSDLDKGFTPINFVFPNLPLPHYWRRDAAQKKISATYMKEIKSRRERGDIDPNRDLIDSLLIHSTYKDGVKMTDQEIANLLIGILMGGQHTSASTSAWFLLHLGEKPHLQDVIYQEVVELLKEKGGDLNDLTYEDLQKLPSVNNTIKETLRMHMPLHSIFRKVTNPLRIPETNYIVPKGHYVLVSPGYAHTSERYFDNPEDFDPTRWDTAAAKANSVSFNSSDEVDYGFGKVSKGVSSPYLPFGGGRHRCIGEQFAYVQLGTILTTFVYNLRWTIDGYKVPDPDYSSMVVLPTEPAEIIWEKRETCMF

Row | SMILES | IC50
1 | CCc1ccc(CC[C@@H]2CCC(C)(C)[C@H](OC)[C@H]2Cn2ccnc2)cc1 | 90.3 nM
2 | CC[C@@H](C)n1ncn(-c2ccc(N3CCN(c4ccc(OC[C@H]5CO[C@](Cn6cncn6)(c6ccc(Cl)cc6Cl)O5)cc4)CC3)cc2)c1=O [ITRAZOLE] | 85 nM
3 | CCCCCCC/C=C/C[C@@H]1OC[C@H](C)[C@H](OC)[C@H]1COC(=O)CN | 225 nM
